These results are taken from US9708314B2, “Heterocyclic amide compound” (NISSAN CHEMICAL INDUSTRIES, LTD., priority 2013, dated 2017).

Type in all cases: in vivo
The test system of one data set is Amaranthus retroflexus. In words: Test Example 4: herbicidal effect by application to foliage (diluvial soil, plastic box). Conditions: application to foliage; for herbicidal effect, N (Amaranthus retroflexus): 320 g/ha; for N: herbicidal effect on Amaranthus retroflexus: application herbicide amount 320 g/ha. The method, boiled down: (§1)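 Seeds sown in sterilized diluvial soil, covered ~1.5 cm, grown 14 days in greenhouse at 25° C. to 30° C. Emulsion formulation diluted in water to set rate (g/ha) and sprayed onto stems and leaves. Effect scored visually 3 weeks later on 0–5 scale (5 = ≥90% herbicidal ratio, 0 = ≤5%).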

The test system of another data set is Stellaria media. Described as above. Particulars: application to foliage; for herbicidal effect, P (Stellaria media): 320 g/ha; for P: herbicidal effect on Stellaria media: application herbicide amount 320 g/ha. The method, boiled down:
as §1

In the next data set the test system is Veronica persica. The data set is described as above. Particulars: for herbicidal effect, R (Veronica persica) / R: herbicidal effect on Veronica persica: application to foliage; for herbicidal effect, R (Veronica persica): 320 g/ha; for R: herbicidal effect on Veronica persica: application herbicide amount 320 g/ha. Put shortly:
as §1

For data set [1], the system named is directly sowed Oryza sativa. Description: Test Example 3: effect on crop by application to foliage (Wagner pot, water depth 0.1-0.5 cm). Particulars: Nineteenth Table; application to foliage; application herbicide amount 320 g/ha. Put shortly:
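Foliar spray, 14-day-old plants, emulsion diluted to target g/ha; rated 3 wk post-application, 0–5 scale (0 ≤5%, 5 ≥90% herbicidal ratio). Greenhouse 25–30 °C, alluvial soil.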

`CCSc1nnc2c(C(=O)Nc3nnnn3CCOC)ccc(C(F)(F)F)n12` [2-098]: in the data set with Amaranthus retroflexus, the “herbicidal effect, N (Amaranthus retroflexus)” value (shortened to “herbicidal effect, N”) is 5 (Herbicidal ratio of 90% or more (almost completely withered)). Besides, in the data set with Stellaria media, the “herbicidal effect, P (Stellaria media)” value was 5 (Herbicidal ratio of 90% or more (almost completely withered)). For the same compound, the “herbicidal effect, R (Veronica persica)” value in the data set on Veronica persica was 4 (Herbicidal ratio of 70% or more and less than 90%).
Take `CN(CCC#N)c1nnc2c(C(=O)Nc3nnco3)ccc(C(F)(F)F)n12` [1-164]: the “N: herbicidal effect on Amaranthus retroflexus” value (from here on “N: herbicidal effect”) with Amaranthus retroflexus was 5 (Herbicidal ratio of 90% or more (almost completely withered)).
For `Cn1nnnc1NC(=O)c1ccc(C(F)(F)F)n2c(SC3CCCC3)nnc12` [2-096], the “herbicidal effect, N” value with Amaranthus retroflexus is 5 (Herbicidal ratio of 90% or more (almost completely withered)). Besides, the “herbicidal effect, P (Stellaria media)” value in the data set with Stellaria media is 4 (Herbicidal ratio of 70% or more and less than 90%). Also, the “herbicidal effect, R (Veronica persica)” value with Veronica persica is 3 (Herbicidal ratio of 40% or more and less than 70%).
Turning to `Cc1nnc(NC(=O)c2ccc(C(F)(F)F)n3c(CC(=O)NC(C)C)nnc23)o1` [1-061], the R with Veronica persica (Application herbicide amount 320 g/ha) is 5 (Herbicidal ratio of 90% or more (almost completely withered)). In addition, the “b (effect on crop grade)” value in data set [1] is 1 (Herbicidal ratio of 5% or more and less than 20%).
With `COCCc1nnc2c(C(=O)Nc3nnc(C)o3)ccc(C(F)(F)F)n12` [1-173], the “N: herbicidal effect” value with Amaranthus retroflexus is recorded as 5 (Herbicidal ratio of 90% or more (almost completely withered)). Further, the “P: herbicidal effect on Stellaria media” value with Stellaria media was 5 (Herbicidal ratio of 90% or more (almost completely withered)). In the data set on Veronica persica, the “R: herbicidal effect on Veronica persica” value was 4 (Herbicidal ratio of 70% or more and less than 90%). The “b (effect on crop grade)” value in data set [1] is 2 (Herbicidal ratio of 20% or more and less than 40%).
`CCSc1nnc2c(C(=O)Nc3ncnn3C)ccc(C(F)(F)F)n12` [4-003]: the “herbicidal effect, N” value in the data set with Amaranthus retroflexus is 2 (Herbicidal ratio of 20% or more and less than 40%). Further, in the data set with Stellaria media, the “herbicidal effect, P (Stellaria media)” value is 4 (Herbicidal ratio of 70% or more and less than 90%). For the same compound, the “herbicidal effect, R (Veronica persica)” value with Veronica persica is 2 (Herbicidal ratio of 20% or more and less than 40%).
Turning to `C#CCN(C)c1nnc2c(C(=O)Nc3nnco3)ccc(C(F)(F)F)n12` [1-163], the “N: herbicidal effect” value with Amaranthus retroflexus was 4 (Herbicidal ratio of 70% or more and less than 90%). For the same compound, the “P: herbicidal effect on Stellaria media” value in the data set on Stellaria media was 4 (Herbicidal ratio of 70% or more and less than 90%). For the same compound, in the data set with Veronica persica, the “R: herbicidal effect on Veronica persica” value was 2 (Herbicidal ratio of 20% or more and less than 40%).
On to `C=CCN(C)c1nnc2c(C(=O)Nc3nnc(C)o3)ccc(C(F)(F)F)n12` [1-166], for which the “N: herbicidal effect” value in the data set on Amaranthus retroflexus is 4 (Herbicidal ratio of 70% or more and less than 90%). Also, the “P: herbicidal effect on Stellaria media” value with Stellaria media is 4 (Herbicidal ratio of 70% or more and less than 90%). The “b (effect on crop grade)” value in data set [1] was 2 (Herbicidal ratio of 20% or more and less than 40%).
With `Cc1nnc(NC(=O)c2ccc(C(F)(F)F)n3c(CC#N)nnc23)o1` [1-168], the “N: herbicidal effect” value with Amaranthus retroflexus was 3 (Herbicidal ratio of 40% or more and less than 70%). Further, the “P: herbicidal effect on Stellaria media” value in the data set with Stellaria media was 5 (Herbicidal ratio of 90% or more (almost completely withered)). The “R: herbicidal effect on Veronica persica” value in the data set on Veronica persica is 5 (Herbicidal ratio of 90% or more (almost completely withered)). Also, the “b (effect on crop grade)” value in data set [1] was 3 (Herbicidal ratio of 40% or more and less than 70%).
Take `C=CCc1nnc2c(C(=O)Nc3nnco3)ccc(C(F)(F)F)n12` [1-158]: the “N: herbicidal effect” value in the data set on Amaranthus retroflexus was 4 (Herbicidal ratio of 70% or more and less than 90%). Further, the “P: herbicidal effect on Stellaria media” value in the data set on Stellaria media is 5 (Herbicidal ratio of 90% or more (almost completely withered)). Besides, the “R: herbicidal effect on Veronica persica” value in the data set with Veronica persica is 4 (Herbicidal ratio of 70% or more and less than 90%).
`Cc1nnc(NC(=O)c2ccc(C(F)(F)F)n3c(CC(F)(F)F)nnc23)o1` [1-162]: the “N: herbicidal effect” value in the data set with Amaranthus retroflexus is 4 (Herbicidal ratio of 70% or more and less than 90%). In addition, the “P: herbicidal effect on Stellaria media” value in the data set with Stellaria media was 3 (Herbicidal ratio of 40% or more and less than 70%). Also, in the data set on Veronica persica, the “R: herbicidal effect on Veronica persica” value was 3 (Herbicidal ratio of 40% or more and less than 70%).
In the case of `Cn1nnnc1NC(=O)c1ccc(C(F)(F)F)n2c(SCc3ccc(Cl)nc3)nnc12` [2-097], the “herbicidal effect, N” value with Amaranthus retroflexus is 3 (Herbicidal ratio of 40% or more and less than 70%). Further, the “herbicidal effect, P (Stellaria media)” value with Stellaria media was 4 (Herbicidal ratio of 70% or more and less than 90%). The “herbicidal effect, R (Veronica persica)” value in the data set on Veronica persica was 4 (Herbicidal ratio of 70% or more and less than 90%).
